{"source": "patent US6638960B2", "about": "“Halogenobenzimidazoles and their use as microbicides” (Bayer Aktiengesellschaft, priority 1995, dated 2003)", "key": {"Phytophthora infestans": {"system": "Phytophthora infestans", "assay": "whole plant or invertebrate", "assay_type": "in vivo", "conditions": "in Solanum lycopersicum, 72 h, read-out: Efficacy in % based on the untreated control at an active compound concentration of 50 ppm"}, "Plasmopara viticola": {"system": "Plasmopara viticola", "assay": "Plasmopara test (vines)/protective", "assay_type": "in vivo", "conditions": "50 ppm active compound; vines sprayed protectively; evaluated 6 days after inoculation; 100% = no disease"}}}
{"smiles": "Cc1noc(C)c1S(=O)(=O)n1c(Br)nc2cc3c(cc21)OC(F)(F)O3", "values": [{"measurement": "melting point", "result": "130 to 134", "unit": "°C"}]}
{"smiles": "FC1(F)Oc2cc3nc(Br)[nH]c3cc2OC1(F)F", "values": [{"measurement": "melting point", "result": "170 to 174", "unit": "°C"}]}
{"smiles": "Clc1nc2cc3c(cc2[nH]1)OCCO3", "values": [{"measurement": "melting point", "result": 150, "unit": "°C"}]}
{"smiles": "FC1(F)Oc2cc3nc[nH]c3cc2OC1(F)F", "values": [{"measurement": "melting point", "result": "70 to 74", "unit": "°C"}]}
{"smiles": "CN(C)S(=O)(=O)n1c(Br)nc2cc3c(cc21)OC(F)(F)C(F)(F)O3", "values": [{"measurement": "pest or weed control at 50 ppm", "setting": "Phytophthora infestans", "result": 86, "unit": "%"}]}
{"smiles": "COc1ccc2c(c1)nc(Cl)n2S(=O)(=O)c1c(C)noc1C", "values": [{"measurement": "pest or weed control at 50 ppm", "setting": "Phytophthora infestans", "result": 96, "unit": "%"}]}
{"smiles": "Cc1onc(N)c1S(=O)(=O)n1c(Br)nc2cc3c(cc21)OC(F)(F)O3", "values": [{"measurement": "pest or weed control at 50 ppm", "setting": "Phytophthora infestans", "result": 95, "unit": "%"}]}
{"smiles": "Cc1noc(C)c1S(=O)(=O)n1c(Cl)nc2ccccc21", "values": [{"measurement": "pest or weed control at 50 ppm", "setting": "Phytophthora infestans", "result": 99, "unit": "%"}]}
{"smiles": "Cc1onc(N)c1S(=O)(=O)n1c(Cl)nc2cc3c(cc21)OC(F)(F)C(F)(F)O3", "values": [{"measurement": "pest or weed control at 50 ppm", "setting": "Phytophthora infestans", "result": 97, "unit": "%"}]}
{"smiles": "Cc1noc(C)c1S(=O)(=O)n1c(Br)nc2cc(Cl)c(Cl)cc21", "values": [{"measurement": "pest or weed control at 50 ppm", "setting": "Phytophthora infestans", "result": 95, "unit": "%"}]}
{"smiles": "Cc1noc(C)c1S(=O)(=O)n1c(Br)nc2cc3c(cc21)OC(F)(F)O3", "note": "[drawing 100]", "values": [{"measurement": "pest or weed control at 50 ppm", "setting": "Phytophthora infestans", "result": 99, "unit": "%"}]}
{"smiles": "Cc1noc(C)c1S(=O)(=O)n1c(Br)nc2cc3c(cc21)OC(F)(F)C(F)(F)O3", "note": "[drawing 101]", "values": [{"measurement": "pest or weed control at 50 ppm", "setting": "Phytophthora infestans", "result": 97, "unit": "%"}]}
{"smiles": "Cc1noc(C)c1S(=O)(=O)n1c(Cl)nc2cc3c(cc21)OC(F)(F)O3", "note": "[drawing 109]", "values": [{"measurement": "pest or weed control at 50 ppm", "setting": "Phytophthora infestans", "result": 99, "unit": "%"}]}
{"smiles": "Cc1noc(C)c1S(=O)(=O)n1c(Cl)nc2ccc(Sc3ccccc3)cc21", "note": "[drawing 110]", "values": [{"measurement": "pest or weed control at 50 ppm", "setting": "Phytophthora infestans", "result": 99, "unit": "%"}]}
{"smiles": "Cc1noc(C)c1S(=O)(=O)n1c(Br)nc2cc3c(cc21)OC(F)(F)O3", "note": "[drawing 114]", "values": [{"measurement": "Efficacy in % based on the untreated control at an active compound concentration of 50 ppm", "setting": "Plasmopara viticola", "result": 99, "unit": "%"}]}
{"smiles": "Cc1noc(C)c1S(=O)(=O)n1c(Br)nc2cc3c(cc21)OC(F)(F)C(F)(F)O3", "note": "[drawing 115]", "values": [{"measurement": "Efficacy in % based on the untreated control at an active compound concentration of 50 ppm", "setting": "Plasmopara viticola", "result": 93, "unit": "%"}]}
{"smiles": "Cc1noc(C)c1S(=O)(=O)n1c(Cl)nc2cc3c(cc21)OC(F)(F)O3", "note": "[drawing 118]", "values": [{"measurement": "Efficacy in % based on the untreated control at an active compound concentration of 50 ppm", "setting": "Plasmopara viticola", "result": 100, "unit": "%"}]}
{"smiles": "Cc1noc(C)c1S(=O)(=O)n1c(Cl)nc2ccc(Sc3ccccc3)cc21", "note": "[drawing 119]", "values": [{"measurement": "Efficacy in % based on the untreated control at an active compound concentration of 50 ppm", "setting": "Plasmopara viticola", "result": 100, "unit": "%"}]}
